In patent publication US20090054504A1 (KNOPP NEUROSCIENCES, INC., priority 2007, published 2009):
Read-outs that look alike come from different tables or passages of the source.

Columns and labels:
[1] = test system: Parkinson's disease patients; conditions: human trials; cited from earlier work
[2] = test system: human subjects; conditions: cited from earlier work; for MRTD (maximum recommended therapeutic dose): FDA MRTD database
[3] = test system: non-naïve male beagle dogs
Procedure: (§2) Doses were administered orally by gavage and clinical observations were taken continuously following dosing: hourly for the first four hours, and then twice daily cage-side observations for the duration of the inter-dose or post-dose interval. Observations were made of clinical signs, mortality, injury and availability of food and water. Animals were fasted for 24 hr prior to dosing. Dogs in each group were exposed to only one drug, or the combination; each dose was administered only once, with a subsequent dose administered after a recovery period of 4 days.

[4] = test system: monkeys treated with MPTP; conditions: from MPTP monkey dose
[5] = test system: monkeys treated with MPTP; conditions: motor deficits and Parkinson-like symptoms; cited from earlier work
[6] = test system: dogs; conditions: single oral dose; cited from earlier work
[7] = biological target: D5 dopamine receptor (Homo sapiens, UniProt P21918); conditions: literature and own data
Procedure: (§1) These concentrations were tested in cell lines expressing select human cloned dopamine receptors (D2S, D3).

[8] = biological target: D1 dopamine receptor (Homo sapiens, UniProt P21728); conditions: literature and own data
Procedure: as §1

[9] = in vivo; conditions: male, dog
Procedure: as §2

[10] = biological target: human cloned dopamine receptors (D3) (Homo sapiens, UniProt P35462); experiment: biochemical
Procedure: as §1

[11] = test system: rodents; conditions: single oral dose; cited from earlier work
[12] = test system: restless legs syndrome patients; conditions: human trials; cited from earlier work
[13] = male, beagle, dog, in vivo, 1 study day
[14] = male, beagle, dog, in vivo, 8 study day

Chain of D1 dopamine receptor (P21728 whole entry): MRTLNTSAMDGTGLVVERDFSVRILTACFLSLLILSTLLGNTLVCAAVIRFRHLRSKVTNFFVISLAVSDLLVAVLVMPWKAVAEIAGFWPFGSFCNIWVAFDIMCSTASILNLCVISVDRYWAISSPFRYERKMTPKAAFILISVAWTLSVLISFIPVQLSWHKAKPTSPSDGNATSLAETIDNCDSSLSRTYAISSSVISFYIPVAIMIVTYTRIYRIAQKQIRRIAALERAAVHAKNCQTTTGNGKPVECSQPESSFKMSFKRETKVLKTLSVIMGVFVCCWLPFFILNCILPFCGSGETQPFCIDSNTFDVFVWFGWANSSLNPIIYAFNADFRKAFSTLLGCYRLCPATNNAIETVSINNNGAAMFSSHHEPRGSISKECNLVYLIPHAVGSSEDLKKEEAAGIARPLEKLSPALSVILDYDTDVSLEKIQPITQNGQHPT
Chain of D5 dopamine receptor (P21918 whole entry): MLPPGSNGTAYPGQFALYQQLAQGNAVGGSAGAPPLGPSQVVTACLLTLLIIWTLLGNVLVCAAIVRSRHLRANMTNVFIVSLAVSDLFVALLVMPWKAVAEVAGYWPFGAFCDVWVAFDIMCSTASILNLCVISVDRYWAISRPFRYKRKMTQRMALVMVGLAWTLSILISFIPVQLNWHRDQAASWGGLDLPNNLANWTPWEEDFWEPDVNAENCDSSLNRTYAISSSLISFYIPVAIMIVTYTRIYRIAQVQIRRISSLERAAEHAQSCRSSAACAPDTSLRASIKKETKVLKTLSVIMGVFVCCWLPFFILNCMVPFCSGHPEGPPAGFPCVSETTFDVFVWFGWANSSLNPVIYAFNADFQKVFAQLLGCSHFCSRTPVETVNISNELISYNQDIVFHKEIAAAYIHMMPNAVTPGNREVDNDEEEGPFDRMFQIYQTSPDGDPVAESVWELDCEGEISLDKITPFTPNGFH
Chain of human cloned dopamine receptors (D3) (P35462 whole entry): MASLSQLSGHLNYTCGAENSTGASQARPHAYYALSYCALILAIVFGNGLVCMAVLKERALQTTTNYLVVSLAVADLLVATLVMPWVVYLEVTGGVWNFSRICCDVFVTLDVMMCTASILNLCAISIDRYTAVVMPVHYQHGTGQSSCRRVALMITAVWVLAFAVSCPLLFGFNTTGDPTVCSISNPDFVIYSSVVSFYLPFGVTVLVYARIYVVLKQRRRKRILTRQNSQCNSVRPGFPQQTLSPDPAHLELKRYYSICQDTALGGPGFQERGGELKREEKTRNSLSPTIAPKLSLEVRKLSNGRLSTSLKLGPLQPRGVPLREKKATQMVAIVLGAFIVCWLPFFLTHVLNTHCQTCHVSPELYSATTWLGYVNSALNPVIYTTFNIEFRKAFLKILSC

Question: With `CCCN[C@H]1CCc2nc(N)sc2C1` [PPX, (6S)-4,5,6,7-tetrahydro-N6-propyl-2,6-benzothiazole-diamine] as the compound, how does the “lowest effective oral immediate release dose versus placebo, Parkinson's disease” value [1] read?
Answer: Its value is 1.1 mg/day.

Question: What about the “MRTD (maximum recommended therapeutic dose)” value ([2]; for a 70 lb. person) of the same compound?
Answer: Its value is 7.0 mg/day.

Question: What about the “MRTD (maximum recommended therapeutic dose)” value [2] of the same compound?
Answer: The value was 0.11 mg/kg/day.

Question: What about the “immediate release dose shown to cause somnolence” value ([2]; human subjects) of the same compound?
Answer: The value was 1.5 mg.

Question: What about the “starting daily dose not tolerated” value ([2]; naïve patient) of the same compound?
Answer: The value was “greater than 0.20 mg”.

Question: What about the “human dose equivalent to the dog NOAEL, for a 70 kg individual” value ([3]; IR dose, from dog data) of the same compound?
Answer: Its value is 0.05 mg.

Question: What about the “human equivalence dose of the dog MTD, for a 70 kg human subject” value ([3]; from dog data) of the same compound?
Answer: The value was 0.30 mg.

Question: What about the “Behavior/Activity: Activity decreased” value ([3]; male, beagle, dog, in vivo) of the same compound?
Answer: The value was 3/4.

Question: What about the “Excretion: Feces soft” value ([3]; male, beagle, dog, in vivo) of the same compound?
Answer: Its value is 0/4.

Question: And the “Excretion: Feces watery” value ([3]; male, beagle, dog, in vivo)?
Answer: Its value is 0/4.

Question: What about the “External Appearance: Lacrimation” value ([3]; male, beagle, dog, in vivo) of the same compound?
Answer: Its value is 0/4.

Question: And the “Eye/Ocular: Pupils dilated” value ([3]; male, beagle, dog, in vivo)?
Answer: Its value is 0/4.

Question: And the “Pelage/Skin: Skin warm to touch” value ([3]; male, beagle, dog, in vivo)?
Answer: The value was 0/4.

Question: And the “Behavior/Activity: Convulsions - clonic” value [3, 13]?
Answer: Its value is 0/4.

Question: What about the “Behavior/Activity: Salivation” value [3, 13] of the same compound?
Answer: Its value is 0/4.

Question: And the “Behavior/Activity: Tremors” value [3, 13]?
Answer: Its value is 1/4.

Question: And the “Excretion: Emesis” value [3, 13]?
Answer: Its value is 3/4.

Question: What about the “Excretion: Feces hard” value [3, 13] of the same compound?
Answer: Its value is 1/4.

Question: What about the “Excretion: Feces mucoid” value [3, 13] of the same compound?
Answer: The value was 0/4.

Question: What about the “Behavior/Activity: Activity decreased” value [3, 14] of the same compound?
Answer: The value was 0/4.

Question: What about the “Behavior/Activity: Tremors” value [3, 14] of the same compound?
Answer: Its value is 0/4.

Question: And the “Excretion: Emesis” value [3, 14]?
Answer: Its value is 0/4.

Question: And the “Excretion: Feces hard” value [3, 14]?
Answer: The value was 0/4.

Question: What about the “equivalent human immediate release dose” value [4] of the same compound?
Answer: Its value is 17 µg/kg.

Question: What about the “equivalent human immediate release dose for a 70 kg individual” value [4] of the same compound?
Answer: Its value is 1.2 mg.

Question: What about the “lowest effective oral immediate release dose” value [5] of the same compound?
Answer: The value was 53 µg/kg.

Question: What about the “dose at which vomiting occurred (and above)” value [6] of the same compound?
Answer: The value was at least 0.7 µg/kg.

Question: What about the “interaction with D5 dopamine receptors” value [7] of the same compound?
Answer: The value was “no significant interaction”.

Question: And the “interaction with D1 dopamine receptors” value [8]?
Answer: The value was “no significant interaction”.

Question: What about the NOAEL at 4 days [9] of the same compound?
Answer: Its NOAEL at 4 days is 0.7 µg/kg.

Question: What about the MTD at 4 days ([9]; po) of the same compound?
Answer: Its MTD at 4 days is 7.5 µg/kg.

Question: And the NOAEL at 4 days ([9]; po)?
Answer: Its NOAEL at 4 days is 1.25 µg/kg.

Question: What about the IC50 [10] of the same compound?
Answer: The IC50 was 940 pM.

Question: What about the “immediate release doses at which deaths occurred (and above)” value [11] of the same compound?
Answer: Its value is 70000 to 105000 µg/kg.

Question: What about the “lowest effective dose versus placebo, restless legs syndrome” value [12] of the same compound?
Answer: Its value is 0.25 mg/day.
